How the values were obtained:
[1] = tested on: dopaminergic neurons in the SNc; assay: 6-OHDA lesion, TH staining of striatum and SNc; assay type: in vivo, mouse; details: bilateral injection into the striatum, 800 nL of 5 mg/mL per side, 1 week
Description: A PD mouse model was generated using 6-OHDA. Desipramine (Sigma) was administrated (25 mg/kg) via intraperitoneal injection 30 min before a 6-OHDA injection. The stereotactic injection procedure was identical to the AAV injection described above. A volume of 800 nL 6-OHDA (5 mg/mL) was injected into each side of striatum (from bregma: AP 0.5 mm, ML ±1.5 mm, DV –3.2 mm) at a rate of 100 nL/min. One week after 6-OHDA lesions were generated, AAV injections were administered, and behavioral tests were conducted 3 weeks after AAV injections.
Animals were deeply anesthetized and perfused with saline and 4% paraformaldehyde perfusion through left ventricle. The mouse brains were extracted, fixed overnight, and then dehydrated with 30% sucrose solution. After being embedded in OCT (Sakura), brain sections were prepared at 40 μm thickness by a cryostat (Leica, CM1950).
Brain slices were blocked and permeabilized with PBS containing 5% bovine serum albumin (BSA) and 0.3% Triton X-100 for 30 min. The slices were then incubated with anti-GFP (Abcam, ab13970) or anti-TH (Abcam, ab76442), diluted to 1:500 in PBS containing 5% BSA at 4°C overnight. The sections were then incubated with diluted Alexa Fluor 488 goat anti-chicken IgG antibody (Thermo Fisher, A-11039) or Alexa Fluor 594 donkey anti-mouse IgG antibody (Thermo Fisher, A32744) at room temperature for 1 h. […]

rM3Ds = biological target: T1, rM3Ds (Rattus norvegicus, UniProt P08483, A177S/A238G/A489L/DEL261-437/DEL441-478/E258S/I253V/I483M/INS256[…]/K178L/K182A/K255R/K484R/K486H/L173F/L482A/M480V/R171S/R176Q/R179M/S481M/T174R/T181R/T257A/Y148C); assay: cAMP assay (CRE-luciferase reporter) in HEK293T cells expressing rM3Ds; assay type: cell-based; details: 100 μM of ACh, rM3Ds-transfected cells
T1 construct: host or cells: HEK293T
T1 sequence (P08483 with tags, fused parts or gaps Y148C/R171S/L173F/T174R/R176Q/A177S/K178L/R179M/T181R/K182A/A238G/I253V/K255R/INS256[…]/T257A/E258S/DEL261-437/DEL441-478/M480V/S481M/L482A/I483M/K484R/K486H/A489L): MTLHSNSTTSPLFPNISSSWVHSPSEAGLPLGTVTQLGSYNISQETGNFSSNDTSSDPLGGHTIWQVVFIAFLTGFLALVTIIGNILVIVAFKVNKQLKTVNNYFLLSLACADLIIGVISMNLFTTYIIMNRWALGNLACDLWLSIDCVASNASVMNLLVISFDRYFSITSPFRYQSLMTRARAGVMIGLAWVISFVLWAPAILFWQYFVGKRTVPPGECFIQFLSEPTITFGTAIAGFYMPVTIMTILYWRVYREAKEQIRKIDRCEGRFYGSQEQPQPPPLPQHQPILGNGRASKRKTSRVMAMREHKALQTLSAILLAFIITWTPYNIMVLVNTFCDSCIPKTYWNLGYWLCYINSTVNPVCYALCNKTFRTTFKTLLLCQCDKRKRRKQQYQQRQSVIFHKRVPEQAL

Structure (SMILES) | dopaminergic neurons in the SNc and dopaminergic innervation in the striatum [1] | luciferase activity (rM3Ds)
NCCc1cc(O)c(O)cc1O [6-OHDA, 6-hydroxydopamine] | almost complete loss | –
CC(=O)OCC[N+](C)(C)C [ACh, acetylcholine chloride] | – | modest elevation in luciferase activity

Reference: paper PMC12015759, “A humanized Gs-coupled DREADD for circuit and behavior modulation” (Frontiers in Cellular Neuroscience, 2025)
